For one compound, Kd results are on record in PMC11032350, “SMS121, a new inhibitor of CD36, impairs fatty acid uptake and viability of acute myeloid leukemia” (Scientific Reports, 2024).

The target of this assay is T1, CD36 (Homo sapiens, UniProt P16671).
T1 construct: commercial biotinylated His, Avitag human CD36, captured on streptavidin CAP chip
Description: SPR (Biacore […]), steady-state […] fit. It is filed as binding. In general terms: Surface plasmon resonance follows binding to a sensor surface in real time, without labels.

In general, Kd refers to the constant that tells how readily two partners part at equilibrium.

T1 sequence (P16671 30-439 limits assumed): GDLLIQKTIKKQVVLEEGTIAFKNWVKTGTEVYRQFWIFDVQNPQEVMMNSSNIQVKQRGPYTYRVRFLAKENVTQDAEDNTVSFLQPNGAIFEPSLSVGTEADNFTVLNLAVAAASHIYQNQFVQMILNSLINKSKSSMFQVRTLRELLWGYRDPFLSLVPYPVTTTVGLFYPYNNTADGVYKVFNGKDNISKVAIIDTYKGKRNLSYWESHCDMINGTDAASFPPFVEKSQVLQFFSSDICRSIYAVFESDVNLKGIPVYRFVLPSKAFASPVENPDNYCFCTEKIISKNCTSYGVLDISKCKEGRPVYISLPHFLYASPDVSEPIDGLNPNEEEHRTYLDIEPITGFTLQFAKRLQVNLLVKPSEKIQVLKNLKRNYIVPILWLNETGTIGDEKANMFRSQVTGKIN

For the compound `COc1cc(/C=C/C(=O)c2ccc(N(C)C)cc2)ccc1OCC(=O)O` [SMS121, (E)-2-(4-(3-(4-(dimethylamino)phenyl)-3-oxoprop-1-en-1-yl)-2-methoxyphenoxy) acetic acid], the Kd is ~5 µM.
